ChEMBL document CHEMBL5550132, “Structure-activity relationship in NOD2 agonistic muramyl dipeptides” (Eur J Med Chem, 2024)

Key:
[1] = biological target: T1, Nuclear factor NF-kappa-B complex (Homo sapiens) (UniProt Q00653+P19838+Q04206); experiment: Activation of NF-kappaB in HEK-Blue hNOD2 cells assessed as fold change at 1000 nM incubated for 48 hrs by SEAP reporter assay; assay type: cell-based; conditions: filed as activator
[2] = biological target: T1, Nuclear factor NF-kappa-B complex (Homo sapiens); experiment: Activation of NF-kappaB in HEK-Blue hNOD2 cells assessed as fold change at 10 nM incubated for 48 hrs by SEAP reporter assay; assay type: cell-based; conditions: filed as activator
[3] = biological target: T1, Nuclear factor NF-kappa-B complex (Homo sapiens); experiment: Activation of NF-kappaB in HEK-Blue hNOD2 cells assessed as fold change at 100 nM incubated for 48 hrs by SEAP reporter assay; assay type: cell-based; conditions: filed as activator
[4] = species: Cavia porcellus; experiment: Induction of delayed type hypersensitivity in ABA-BSA immunized Hartley Guinea pigs assessed as reduction in skin lesions at 100 ug measured for 24 hrs; assay type: functional; conditions: dose 100 µg
[5] = species: Cavia porcellus; experiment: Induction of delayed type hypersensitivity in ABA-BSA immunized Hartley Guinea pigs assessed as reduction in skin lesions at 100 ug measured for 48 hrs; assay type: functional; conditions: dose 100 µg
[6] = biological target: T1, Nuclear factor NF-kappa-B complex (Homo sapiens); experiment: Activation of NF-KappaB in HEK293T cells assessed as fold change; assay type: cell-based; conditions: filed as activator
[7] = biological target: Nucleotide-binding oligomerization domain-containing protein 2 (Homo sapiens, UniProt Q9HC29); experiment: Activation of NOD2 in HEK293T cells; assay type: cell-based; conditions: filed as activator
Nucleotide-binding oligomerization domain-containing protein 2, sequence (Q9HC29 whole entry, the tested form may be a part): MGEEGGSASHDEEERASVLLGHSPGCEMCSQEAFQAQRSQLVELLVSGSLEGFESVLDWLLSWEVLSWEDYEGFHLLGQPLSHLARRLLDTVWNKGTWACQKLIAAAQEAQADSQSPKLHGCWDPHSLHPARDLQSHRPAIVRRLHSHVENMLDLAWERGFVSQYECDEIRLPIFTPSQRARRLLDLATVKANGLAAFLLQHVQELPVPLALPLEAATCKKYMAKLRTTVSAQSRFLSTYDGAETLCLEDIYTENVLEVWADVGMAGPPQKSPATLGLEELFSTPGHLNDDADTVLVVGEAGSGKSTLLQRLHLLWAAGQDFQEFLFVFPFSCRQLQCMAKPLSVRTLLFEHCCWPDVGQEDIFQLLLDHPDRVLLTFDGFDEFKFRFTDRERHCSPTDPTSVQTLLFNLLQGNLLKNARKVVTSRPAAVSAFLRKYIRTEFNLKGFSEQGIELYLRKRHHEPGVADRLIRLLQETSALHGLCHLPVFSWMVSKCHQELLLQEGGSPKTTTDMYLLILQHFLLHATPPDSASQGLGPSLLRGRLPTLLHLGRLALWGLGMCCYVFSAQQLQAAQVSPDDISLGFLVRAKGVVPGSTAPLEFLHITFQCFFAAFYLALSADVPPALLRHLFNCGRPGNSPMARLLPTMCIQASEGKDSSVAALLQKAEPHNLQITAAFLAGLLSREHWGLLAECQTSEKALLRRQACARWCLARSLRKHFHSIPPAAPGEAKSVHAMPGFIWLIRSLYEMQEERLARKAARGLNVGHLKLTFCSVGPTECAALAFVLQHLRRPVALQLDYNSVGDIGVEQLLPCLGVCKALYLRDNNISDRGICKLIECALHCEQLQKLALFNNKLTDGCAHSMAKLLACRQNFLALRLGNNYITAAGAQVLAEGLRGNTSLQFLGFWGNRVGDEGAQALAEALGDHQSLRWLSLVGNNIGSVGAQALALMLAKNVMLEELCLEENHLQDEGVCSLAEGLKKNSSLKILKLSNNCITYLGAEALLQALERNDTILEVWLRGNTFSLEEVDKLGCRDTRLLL

[8] = biological target: T1, Nuclear factor NF-kappa-B complex (Homo sapiens); experiment: Activation of NF-KappaB (unknown origin) expressed in HEK293T cells assessed as fold change at 10 ng incubated for 12 hrs by Renilla luciferase assay; assay type: cell-based; conditions: filed as activator
[9] = biological target: T1, Nuclear factor NF-kappa-B complex (Homo sapiens); experiment: Activation of NF-KappaB (unknown origin) expressed in HEK293T cells assessed as fold change at 100 ng incubated for 12 hrs by Renilla luciferase assay; assay type: cell-based; conditions: filed as activator
[10] = biological target: T1, Nuclear factor NF-kappa-B complex (Homo sapiens); experiment: Activation of NF-KappaB (unknown origin) expressed in HEK293T cells assessed as fold change at 1000 ng incubated for 12 hrs by Renilla luciferase assay; assay type: cell-based; conditions: filed as activator
[11] = biological target: T1, Nuclear factor NF-kappa-B complex (Homo sapiens); experiment: Activation of NF-KappaB (unknown origin) expressed in HEK293T cells assessed as fold change at 20 uM; assay type: cell-based; conditions: filed as activator

T1 sequence (P19838 whole entry, looked up): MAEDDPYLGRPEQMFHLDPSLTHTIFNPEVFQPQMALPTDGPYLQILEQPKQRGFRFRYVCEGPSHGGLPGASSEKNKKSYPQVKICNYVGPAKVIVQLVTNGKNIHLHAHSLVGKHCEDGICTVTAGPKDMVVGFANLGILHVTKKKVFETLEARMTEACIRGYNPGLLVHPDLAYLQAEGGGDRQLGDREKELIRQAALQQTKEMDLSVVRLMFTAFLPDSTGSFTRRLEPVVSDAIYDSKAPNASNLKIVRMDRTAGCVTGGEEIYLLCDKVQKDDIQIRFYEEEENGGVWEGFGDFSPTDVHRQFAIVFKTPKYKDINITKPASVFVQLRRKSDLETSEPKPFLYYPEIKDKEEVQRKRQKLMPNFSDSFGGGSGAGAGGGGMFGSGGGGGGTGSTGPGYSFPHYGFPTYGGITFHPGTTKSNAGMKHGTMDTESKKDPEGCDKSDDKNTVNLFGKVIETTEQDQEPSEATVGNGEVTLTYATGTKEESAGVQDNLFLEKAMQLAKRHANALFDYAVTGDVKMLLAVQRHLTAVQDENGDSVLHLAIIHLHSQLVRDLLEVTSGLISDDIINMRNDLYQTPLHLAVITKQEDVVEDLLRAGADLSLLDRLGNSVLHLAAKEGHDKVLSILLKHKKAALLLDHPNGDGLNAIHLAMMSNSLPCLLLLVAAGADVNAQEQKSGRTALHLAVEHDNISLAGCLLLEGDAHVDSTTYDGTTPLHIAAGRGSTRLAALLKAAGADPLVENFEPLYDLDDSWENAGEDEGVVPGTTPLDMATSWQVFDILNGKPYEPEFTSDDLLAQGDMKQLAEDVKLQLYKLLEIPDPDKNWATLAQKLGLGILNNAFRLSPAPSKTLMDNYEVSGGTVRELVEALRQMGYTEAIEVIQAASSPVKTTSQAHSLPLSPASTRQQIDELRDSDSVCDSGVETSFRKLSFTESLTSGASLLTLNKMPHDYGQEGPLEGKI
T1 sequence (Q00653 whole entry, looked up): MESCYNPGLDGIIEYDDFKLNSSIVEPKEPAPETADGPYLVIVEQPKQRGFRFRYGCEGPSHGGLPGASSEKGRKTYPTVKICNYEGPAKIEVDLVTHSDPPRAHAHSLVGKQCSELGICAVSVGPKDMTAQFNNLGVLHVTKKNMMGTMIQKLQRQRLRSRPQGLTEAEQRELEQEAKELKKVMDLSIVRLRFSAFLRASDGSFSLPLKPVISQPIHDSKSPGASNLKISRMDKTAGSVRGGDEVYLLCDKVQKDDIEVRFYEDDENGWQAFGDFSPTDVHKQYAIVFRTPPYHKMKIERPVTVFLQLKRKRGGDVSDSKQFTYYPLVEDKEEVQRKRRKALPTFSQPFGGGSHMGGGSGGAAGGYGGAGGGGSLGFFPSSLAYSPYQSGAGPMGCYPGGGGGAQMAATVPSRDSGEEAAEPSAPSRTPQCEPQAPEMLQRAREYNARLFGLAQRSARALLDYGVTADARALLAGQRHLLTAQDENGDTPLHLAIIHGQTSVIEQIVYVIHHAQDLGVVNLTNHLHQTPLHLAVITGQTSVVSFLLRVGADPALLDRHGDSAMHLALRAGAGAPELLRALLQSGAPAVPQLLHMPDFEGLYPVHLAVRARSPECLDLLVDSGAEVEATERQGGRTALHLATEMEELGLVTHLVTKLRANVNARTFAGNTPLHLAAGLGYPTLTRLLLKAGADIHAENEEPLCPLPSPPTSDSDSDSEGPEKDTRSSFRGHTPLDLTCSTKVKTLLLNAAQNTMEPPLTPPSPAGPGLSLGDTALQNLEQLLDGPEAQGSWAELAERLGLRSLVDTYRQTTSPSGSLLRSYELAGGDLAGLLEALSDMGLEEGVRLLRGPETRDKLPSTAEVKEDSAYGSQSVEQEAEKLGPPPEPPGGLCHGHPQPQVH
T1 sequence (Q04206 whole entry, looked up): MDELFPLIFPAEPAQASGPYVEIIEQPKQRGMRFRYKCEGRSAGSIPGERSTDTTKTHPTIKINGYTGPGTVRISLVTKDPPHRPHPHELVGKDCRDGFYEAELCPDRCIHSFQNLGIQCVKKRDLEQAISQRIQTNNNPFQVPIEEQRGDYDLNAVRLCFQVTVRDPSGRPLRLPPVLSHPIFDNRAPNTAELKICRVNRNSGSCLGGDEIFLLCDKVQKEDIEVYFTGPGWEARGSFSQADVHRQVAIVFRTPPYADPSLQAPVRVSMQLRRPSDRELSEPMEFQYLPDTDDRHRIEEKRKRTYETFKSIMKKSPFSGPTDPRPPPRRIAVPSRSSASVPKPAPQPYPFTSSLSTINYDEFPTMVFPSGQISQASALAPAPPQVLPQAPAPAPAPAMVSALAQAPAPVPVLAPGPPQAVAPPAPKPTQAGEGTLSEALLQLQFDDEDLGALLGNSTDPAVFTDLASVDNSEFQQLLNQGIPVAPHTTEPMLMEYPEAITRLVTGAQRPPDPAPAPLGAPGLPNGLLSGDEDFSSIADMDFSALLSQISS

CNCc1cn([C@H]2[C@H](O[C@H](C)C(=O)N[C@@H](C)C(=O)N[C@H](CCC(=O)O)C(N)=O)[C@@H](NC(C)=O)[C@H](O)O[C@@H]2CO)nn1
fold change (FC) [1]: 1 | fold change (FC) [2]: 1.1 | fold change (FC) [3]: 1.05

CC(=O)N[C@@H]1[C@@H](O[C@H](C)C(=O)N[C@@H](C)C(=O)N[C@H](CCC(=O)O)C(N)=O)[C@H](O)[C@@H](CN)O[C@H]1O
Activity [4]: 17.3 mm | Activity [5]: 10.9 mm | fold change (FC) [6]: 9.15

CC(=O)N[C@@H]1[C@@H](O)[C@H](O[C@@H]2O[C@H](CO)[C@@H](O)[C@H](O[C@H](C)C(=O)N[C@@H](C)C(=O)N[C@H](CCC(=O)N[C@@H](CCCCN)C(=O)O)C(N)=O)[C@H]2NC(C)=O)[C@@H](CO)O[C@H]1O
Activity [7]: 100 mU

COc1ccc(CC(=O)NCc2cn([C@H]3[C@H](O[C@H](C)C(=O)N[C@@H](C)C(=O)N[C@H](CCC(=O)O)C(N)=O)[C@@H](NC(C)=O)[C@H](O)O[C@@H]3CO)nn2)cc1
fold change (FC) [1]: 1.55 | fold change (FC) [2]: 1.1 | fold change (FC) [3]: 1.15

CCO[C@@H]1O[C@H](CO)[C@@H](O[C@@H]2O[C@H](CO)[C@@H](O[C@@H]3O[C@H](CO)[C@@H](O[C@@H]4O[C@H](CO)[C@@H](O)[C@H](O[C@H](C)C(=O)N[C@@H](C)C(=O)N[C@H](CCC(=O)N[C@@H](CCCCN)C(=O)O)C(N)=O)[C@H]4NC(C)=O)[C@H](O)[C@H]3NC(C)=O)[C@H](O[C@H](C)C(=O)N[C@@H](C)C(=O)N[C@H](CCC(=O)N[C@@H](CCCCN)C(=O)O)C(N)=O)[C@H]2NC(C)=O)[C@H](O)[C@H]1NC(C)=O
Activity [7]: 30 mU

CC(=O)N[C@@H]1[C@@H](O[C@H](C)C(=O)N[C@@H](C)C(=O)N[C@@H](CCC(=O)O)C(N)=O)[C@H](O)[C@@H](CNC(=O)CCSSCCNC(=O)CCCC[C@@H]2SC[C@@H]3NC(=O)N[C@@H]32)O[C@H]1O
fold change (FC) [6]: 0.9

COc1ccc(CC(=O)NCc2cn([C@H]3[C@H](O[C@H](C)C(=O)N[C@@H](C)C(=O)N[C@H](CCC(=O)O)C(N)=O)[C@@H](NC(C)=O)[C@H](OCc4ccccc4)O[C@@H]3CO)nn2)cc1
fold change (FC) [1]: 1.2 | fold change (FC) [2]: 1.1 | fold change (FC) [3]: 1.05

CC(=O)N[C@@H]1[C@@H](O[C@H](C)C(=O)N[C@@H](C)C(=O)N[C@H](CCC(=O)O)C(N)=O)[C@H](O)[C@@H](CNC(=O)CCOCCOCCOCCOCCNC(=O)CCCC[C@@H]2SC[C@@H]3NC(=O)N[C@@H]32)O[C@H]1O
fold change (FC) [6]: 9.45

CC(=O)N[C@@H]1[C@@H](O[C@H](C)C(=O)N2CCC[C@H]2C(=O)N[C@H](CCC(=O)O)C(N)=O)[C@H](O)[C@@H](CO)O[C@H]1O
fold change (FC) [8]: 1.4 | fold change (FC) [9]: 1.3 | fold change (FC) [10]: 1.5

CC(=O)N[C@H]1[C@H](OCc2ccccc2)O[C@H](CO)[C@@H](N)[C@@H]1O[C@H](C)C(=O)N[C@@H](C)C(=O)N[C@H](CCC(=O)O)C(N)=O
fold change (FC) [1]: 1.35 | fold change (FC) [2]: 1.1 | fold change (FC) [3]: 1.2

CC(=O)N[C@@H]1[C@@H](O[C@H](C)C(=O)N[C@@H](C)C(=O)N[C@@H](CCC(=O)O)C(N)=O)[C@H](O)[C@@H](CNC(=O)CCOCCOCCOCCOCCOCCOCCOCCOCCOCCOCCOCCOCCNC(=O)CCCC[C@@H]2SC[C@@H]3NC(=O)N[C@@H]32)O[C@H]1O
fold change (FC) [6]: 1.05

CC(=O)N[C@@H]1[C@@H](O[C@H](C)C(=O)N[C@@H](C)C(=O)N[C@H](CCC(=O)O)C(N)=O)[C@H](n2cc(CNC(=O)Cc3ccc(C(F)(F)F)cc3)nn2)[C@@H](CO)O[C@H]1O
fold change (FC) [1]: 1.35 | fold change (FC) [2]: 1.15 | fold change (FC) [3]: 1.1

CCO[C@@H]1O[C@H](CO)[C@@H](O[C@@H]2O[C@H](CO)[C@@H](O[C@@H]3O[C@H](CO)[C@@H](O[C@@H]4O[C@H](CO)[C@@H](O)[C@H](O[C@H](C)C(=O)N[C@@H](C)C(=O)N[C@H](CCC(=O)N[C@@H](CCCCN)C(=O)O)C(N)=O)[C@H]4NC(C)=O)[C@H](O)[C@H]3NC(C)=O)[C@H](O)[C@H]2NC(C)=O)[C@H](O[C@H](C)C(=O)N[C@@H](C)C(=O)N[C@H](CCC(=O)N[C@@H](CCCCN)C(=O)O)C(N)=O)[C@H]1NC(C)=O
Activity [7]: 0.5 mU

CC(=O)N[C@@H]1[C@@H](O[C@H](C)C(=O)N[C@@H](C)C(=O)N[C@H](CCC(=O)O)C(N)=O)[C@H](O[C@@H]2O[C@H](CO)[C@@H](O)[C@H](O)[C@H]2NC(C)=O)[C@@H](CO)O[C@H]1O
Activity [7]: 1000 mU

COC(=O)CCC(=O)N[C@@H]1[C@@H](O[C@H](C)C(=O)N[C@@H](C)C(=O)N[C@H](CCC(=O)O)C(N)=O)[C@H](O)[C@@H](CO)O[C@H]1O
fold change (FC) [11]: 2.4
